The test system of test [1] is anti-phospholipid autoantibodies, SLE PBMC. Put plainly: Anti-phospholipid autoantibody production in cultures of SLE PBMC (ELISA). Type of test: cell-based. Conditions: Homo sapiens, N=8. The protocol: (§1) PBMCs were purified from human buffy coats using Ficoll-Paque method. CD19+ B cells were isolated from PBMC by following EasySep Human B cell enrichment cocktail protocol (StemCell Technologies Catalog #19054). Fresh B cell cocktail was prepared by adding 50 μg/mL of human transferrin to B cell medium (Iscove's medium with 10% PFBS, 1% P/S, and 5 μg/mL human insulin). The required volume of medium needed for the experiment was filtered through a 0.22 micron filter. B cell differentiation cocktail (final concentration): recombinant human Interleukin (IL)-2 (20 U/mL), IL-10 (50 ng/mL), IL-15 (10 ng/mL), CD40 Ligand/TNFSF5/histidine-tagged (50 ng/mL), polyHistidine mouse IgG1 antibody (5 μg/mL), and ODN 2006-Human TLR9 ligand (10 μg/mL). CD19+ cells were pretreated with Compound 1A or a Syk inhibitor or 0.1% DMSO for 1 hr, then incubated with B-cell differentiation medium for indicated times.
(§2) Whole blood samples from patients identified with SLE were obtained from Sanguine Biosciences; Inc. the blood was diluted with sterile Dulbecco's phosphate buffered saline solution (DPBS) and placed into three 50-mL conical tubes. […] Cell culture supernatants were harvested and analyzed for autoantibodies using an Anti-double stranded DNA antibody ELISA kit (Orgentec ORG 604S) and an Anti-Cardiolipin/Phospholipid ELISA kit (Orgentec ORG-529).

Test [2] has as its system Aiolos. The test is described as follows: Aiolos protein level in whole blood leukocyte subsets, flow cytometry. The format is cell-based, human. Conditions: 1, 10, 100 nM, 18 hrs; CD19+ B cells, CD3+ T cells, CD14+ monocytes, granulocytes. The protocol: (§3) Human heparinized whole blood from normal healthy volunteers (Bioreclamation, Westbury, N.Y.) was treated with 0.1% DMSO and Compound 1A (1, 10, 100 nM) for 18 hrs at 37° C., 5% CO2. After 18 hrs, the blood was lysed and fixed with 1× Lyse/Fix Buffer (BD Biosciences) for 10 minutes at 37° C. Washed cells with cold PBS and cells were first multicolor stained with mouse anti-human CD3-PE mAb, mouse anti-human CD19-APC mAb and mouse anti-human-CD14-PerCP mAb (all from BD Biosciences) to identify CD3+ T cells, CD19+ B cells and CD14+ monocytes, respectively. The cells were then permeabilized by adding BD Perm/Wash Buffer I. Blocked non-specific binding by added FcR Blocking Reagent (Miltenyi Biotech) for 10 minutes prior to staining for intracellular Aiolos or Ikaros content. The cells were then stained with rabbit anti-human Aiolos polyclonal Ab (Santa Cruz, 1:200 dilution in Perm/Wash Buffer) or anti-human Ikaros polyclonal Ab (Santa Cruz, 1:50 dilution in Perm/Wash Buffer), followed by a goat-anti-rabbit mAb-AF488 Ab (Invitrogen, at 1:400 dilution in Perm/Wash Buffer) to test the intracellular Aiolos or Ikaros levels. […] Aiolos and Ikaros protein levels in B cells, T cells, monocytes and granulocytes were analyzed by FACSCanto with FACSDiva 6 (BD Biosciences) based on the gating of CD3+ cells, CD19+ cells, CD14+ cells and granulocytes (FSC/SSC). […]

The test system of the next test is CD3+ T cells. Put plainly: Peripheral blood T cell counts in healthy volunteers. The format is in vivo, human. The protocol:
(§4) Healthy volunteers were administered placebo (n=10) or Compound 1A at doses of 0.03 mg, 0.1 mg, 0.3 mg, 1 mg, or 2 mg (N=6 each). Blood samples were drawn prior to dosing, or 3 hr, 12 hr, and 24 hr after dosing. Blood samples were lysed and fixed immediately by mixing 1 volume of blood with 20 volumes of 1× Lyse/Fix buffer (BD Biosciences, cat#558049) and mixing thoroughly by inverting the tube several times. This sample mix was incubated in a 37° C. water bath for 10 minutes, and the cells were pelleted by centrifugation at 800×g for 5 minutes to remove the supernatant by aspiration. The cells were washed twice with 2 mL of cold phosphate buffer saline (PBs), then permeabilized by adding 2 mL of cold BD Cytofix/cytoperm buffer and incubated on ice for 15 minutes. The cells were centrifuged than washed twice with BD perm/wash buffer, then resuspended in 40 ul of BD perm/wash buffer. Cells were stained with anti-CD3 or anti-CD19 antibody, and 20 ul of anti-Aiolos Ab (Santa Cruz Santa Cruz, rabbit polyclonal IgG, cat #sc-101982 at 1:200 dilution with staining buffer), or 20 uL of appropriate isotype controls to cells. Cells were mixed thoroughly and incubated at room temperature for 30 minutes in the dark, washed once with BD perm/wash buffer, then resuspended in 80 ul of BD perm/wash buffer, and 20 uL of secondary antibody was added before analysis on a flow cytometer.
Absolute T cell counts in the peripheral blood were measured by flow cytometry with anti-CD3 antibody as described above.

A further test deals with IL-2. The test is described as follows: Ex vivo IL-2 production in anti-CD3-stimulated whole blood of dosed healthy volunteers. Further details: species or system human. The following applies: 12 hours postdose on Day 1. An excerpt:
Whole blood was stimulated with anti-CD3 antibody and analyzed for IL-2 using the CD3 TruCulture system (Part number 782-001202) by Myriad Rules Based Medicine (Austin, Tex.).

The test system of a further test is IL-1β. The test is described as follows: Ex vivo IL-1β production in lipopolysaccharide-stimulated whole blood of dosed healthy volunteers. Further details: species or system human. Conditions: 12 hours postdose. An excerpt:
Whole blood was stimulated with lipopolysachharide and analyzed for IL-1β using the LPS TruCulture system (Part number 782-001087) by Myriad Rules Based Medicine (Austin, Tex.).

For test [3], the system named is anti-dsDNA autoantibodies, SLE PBMC. The test is described as follows: Anti-dsDNA autoantibody production in cultures of SLE PBMC (ELISA). Type of test: cell-based. Conditions: Homo sapiens, N=9. The method, then: as §1, §2
The test system of test [4] is Aiolos. The test is described as follows: T cell intracellular Aiolos after single doses in healthy volunteers. The format is in vivo, human. The following applies: 12 hours postdose. The method, then: as §4
The subject of a further test is CD19+ B cells. The test is described as follows: Peripheral blood B cell counts in healthy volunteers. Type of test: in vivo. The following applies: Homo sapiens. The protocol: as §4, with “Blood samples were drawn prior to dosing, or 3 hr, 12 hr, and 24 hr after dosing.” left out
Absolute B cell counts in the peripheral blood were measured by flow cytometry with anti-CD19 antibody as described above.

In test [5] the test system is Aiolos. Put plainly: B cell intracellular Aiolos after single doses in healthy volunteers. Type of test: in vivo, human. The protocol: as §4
In another test the test system is Ikaros. The test is described as follows: Ikaros protein level in whole blood leukocyte subsets, flow cytometry. The format is cell-based, human. Conditions: 1, 10, 100 nM, 18 hrs; CD19+ B cells, CD3+ T cells, CD14+ monocytes, granulocytes. The method, then: as §3

Where two headings read alike, the source gives them in different places.

Consider `O=C1CC[C@H](N2Cc3c(OCc4ccc(CN5CCOCC5)cc4)cccc3C2=O)C(=O)N1` [Compound 1A, (S)-3-[4-(4-morphlin-4-ylmethylbenzyloxy)-1-oxo-1,3-dihydro-isoindo-2-yl]piperidine-2,6-dione], for which the half-maximal inhibitory concentration (IC50) in test [1] and in [3] was approximately 10 nM in each case. Further, the “Aiolos protein levels in whole blood leukocyte subsets” value in the test on Aiolos [2] was “reduced”. The “peripheral blood T cell counts, percent of baseline” value in the test with CD3+ T cells (0.3 mg, Day 2) is listed as 84.1%; with CD3+ T cells (1 mg, Day 2), 79.4%; in the test with CD3+ T cells (2 mg, Day 5) it was 73.8%. Further, the “maximum IL-2, mean percent of baseline” value in the test on IL-2 (0.3 mg) turned out to be 315%; in the test on IL-2 (1 mg), 973%; in the test on IL-2 (2 mg) it was 915%. In addition, the “maximum IL-1β response, mean percent of baseline” value came out at 42.2% with IL-1β (0.3 mg), 21.8% in the test on IL-1β (1 mg) and 16.3% in the test with IL-1β (2 mg). In addition, the entries for the “T cell intracellular Aiolos, percent of baseline” value with Aiolos [4] (1 mg single dose) and with Aiolos [4] (2 mg single dose) were 22.3% and 26.1%, respectively. Besides, the Emax amounted to 67.3% in the test on CD19+ B cells (48 h, 1 mg, Day 2, read-out: absolute CD19+ cells, mean percent of baseline (maximum response)); 73.5% in the test with CD19+ B cells (72 h, 0.3 mg, Day 3, read-out: absolute CD19+ cells, mean percent of baseline (maximum response)); 51.3% in the test on CD19+ B cells (72 h, 2 mg, Day 3, read-out: absolute CD19+ cells, mean percent of baseline (maximum response)). In addition, the “B cell intracellular Aiolos, percent of baseline” value turned out to be 24.8% in the test with Aiolos [5] (0.3 mg single dose, 24 hours postdose); 28.2% with Aiolos [5] (1 mg single dose, 12 hours postdose); 25.0% with Aiolos [5] (2 mg single dose, 12 hours postdose). The “Ikaros protein levels in whole blood leukocyte subsets” value in the test on Ikaros is given as “reduced”.

These data come from patent US10980812B2, “3-(4-((4-(morpholinomethyl-benzyl)oxy)-1 -oxoisoindolin-2-yl)piperidine-2,6-dione for the treatment of systemic lupus erythematosus” (Celgene Corporation, priority 2014, dated 2021).
